Reference: patent publication US4501744A, “Substituted-aza-cytosine compounds and anti-viral uses thereof” (ens BIO LOGICALS Inc., priority 1983, dated 1985)
Values after ≈ are worked out from the molar mass of the structure shown. Where two headings read alike, the source gives them in different places.

Key:
[1] = test system: herpes simplex virus (HSV); conditions: disclosed in U.S. Pat. No. 4,347,360; cited from earlier work
[2] = test system: herpes simplex virus (HSV); assay: Plaque titration: reduction of plaque size and plaque number of herpes simplex virus in human fetal fibroblasts; format: cell-based; conditions: for IC25 / IC50 / IC75: Fibroblast, human fetal fibroblasts, 48 h
Experimental: Herpes simplex virus (HSV) strains were grown and titrated at 36° C. in human fetal fibroblasts derived from fetal tissues, and used for virus work before the tenth passage. Cells were grown and maintained in basal medium Eagle (BME; Auto-Pow, Flow Laboratories) supplemented with 0.112% sodium bicarbonate, 2 mM 1-glutanine, 2 mg neomycin per 100 ml and 5-20% calf serum. 5% BME, as described hereafter, indicates medium containing 5 ml of calf serum in a total volume of 100 ml.
The titer of the HSV strains is determined by a plaque titration method (Roizman & Roane, "Virology", 15, 75-79, 1961). Tissue culture dishes are seeded with cells and used for assays when approximately 75% monolayer. Volumes (0.2 ml) of logarithmic dilutions of the strain are inoculated onto each of two tissue culture dishes, and adsorbed for 1 hr. with intermittent shaking, the inoculum removed, and 2 ml of 5% BME containing 0.5% human immune serum globulin added. After a 48 hour incubation period at 36° C. in a 5% CO2 atmosphere, the overlay medium is removed and the cell sheets stained with a 0.05% aqueous crystal violet solution. The number of plaques is counted, the duplicates averaged, and the number of plaque-forming units calculated.
The compounds are tested for activity against the herpes simplex strains using a stock solution of each compound freshly prepared by dissolving 1.2 mg in BME. Appropriate dilution of each compound are made in 5% BME containing 0.5% human immune serum globulin just before usage.
Tissue culture dishes (35 by 10 mm) with approximately 75% cell monolayer are inoculated with approximately 50 plaque-forming units of HSV per 0.2 ml, and the virus adsorbed for 1 hour, with intermittent shaking. After removal of the inoculum, 2 ml of 5% BME with 0.5% immune globulin and three-fold dilutions of the appropriate drug are added. One set of dishes receives no drug and is used as a control. After a 48-hour incubation period, at 36° C. in a 5% CO2 atmosphere, the overlay medium is removed, the cells stained as described above, and plaques counted. The counts of replicate plates are averaged, and the number of plaques emerging in the presence of each drug dilution is calculated. The reduction in plaque size caused by the concentration of the drug, as compared with the relevant control, is also measured, visually. […] A reduction in the area of the growing plaque indicates inhibition of plaque growth, i.e. inhibition of viral reproduction, caused by the drug.

cytomegalovirus (CMV) = assay: CMV plaque (microplaque/ELISA) assay in human fetal fibroblast (lung) HFF cells; format: cell-based; conditions: at a dosage level non-toxic to mammalian cells
Experimental: The compounds of example 3, (5-aza-C*) was tested in vitro for activity against cytomegalovirus, CMV, in mammalian cells. Human fetal fibroblast (lung) HFF cells were used, in generally standard viral plaque titration methods.
Human fetal fibroblast (lung) HFF cells were used, in generally standard viral plaque titration methods. The cells were grown and maintained in Basal Medium Eagle (BME) supplemented with 0.112% sodium bicarbonate, 2 mM L-glutamine, 2 mg % neomycin and 20% (vol/vol) calf serum.
A viral plaque titration method (Roizman & Roane, 1961) was used to determine the virus titre of the CMV. 35 mm tissue culture plates were seeded with HFF 36 P5 and grown to 50-70% monolayer. […]
The cells were incubated for 72 hours at 37° C. in 5% carbon dioxide atmosphere. At 75 hours, the number of CMV infected foci (microplaques) was quantitated using enzyme linked immunosorbent assay (ELISA) using as an enzyme tag horseradish peroxidase and DAB substrate so as to stain the infected foci with a brown precipitate. […]
CMV-positive human serum was diluted 1:10 with PBS, and 0.2 ml of the diluted serum was put in each plate and the plate shaken for 30 minutes. […] Plaques were counted, and numbers of plaques per microscopic field determined.
The reading of the CMV assay was done by comparing no-drug controls to the drug treated plates. […]

Toxicity to host cells = format: cell-based, human; conditions: in the HSV test; human fetal fibroblasts; read-out: concentration up to which no evidence of toxicity was shown
[3] = test system: human fetal fibroblasts / mammalian cells; assay: Toxicity to host cells; format: cell-based; conditions: at the dosage level active against HSV and CMV
[4] = read-out: concentration reducing plaque numbers by 25%
[5] = read-out: concentration reducing plaque numbers by 50%
[6] = read-out: concentration reducing plaque size by 25%
[7] = read-out: concentration reducing plaque size by 50%

For `Nc1ncnc2c1ncn2COC(CO)CO` [9-[[2-hydroxy-1-(hydroxymethyl)ethoxy]-methyl]adenine], which “activity against herpes simplex virus (in words)” value [1] is on record?
The value was “active against herpes simplex virus”.

Which results are given for `Nc1ncn(COC(CO)CO)c(=O)n1` [5-aza-C*, 5-aza-1-[[1-hydroxymethyl-[2-hydroxy]-ethoxy]methyl]cytosine]?
activity against HSV (in words) [2]: high activity against the HSV; IC25 [2, 4]: 8 µg/mL (≈ 37 µM); IC50 [2, 5]: 30 µg/mL (≈ 139 µM); IC75 ([2]; read-out: concentration reducing plaque numbers by 75%): 140 µg/mL (≈ 648 µM); IC25 [2, 6]: 5 µg/mL (≈ 23.1 µM); IC50 [2, 7]: 30 µg/mL (≈ 139 µM); IC75 ([2]; read-out: concentration reducing plaque size by 75%): 110 µg/mL (≈ 509 µM); activity against HSV (in words) ([2]; listed as 5-aza-1-[[1-hydroxymethyl(2-hydroxy)ethoxy]methyl]cytosine): active against herpes simplex virus HSV; activity against CMV (in words) (cytomegalovirus (CMV)): active; MNTC at 48 h (Toxicity to host cells): > 304 µg/mL; toxicity to mammalian cells (in words) [3]: non-toxic to mammalian cells

Which “activity against HSV (in words)” value [2] does the source give for `O=c1[nH]c(=O)n(COC(COCc2ccccc2)COCc2ccccc2)cc1F` [5F-benzyl-U*, 1-[[2-benzyloxy-1-(benzyloxymethyl)ethoxy]methyl]-5-fluorouracil] here?
The value was “showed activity against HSV”.

What about the IC25 [2, 4] of the same compound?
The IC25 was 70 µg/mL (≈ 169 µM).

What about the IC50 [2, 5] of the same compound?
Its IC50 is 110 µg/mL (≈ 265 µM).

And the IC25 [2, 6]?
Its IC25 is 10 µg/mL (≈ 24.1 µM).

And the IC50 [2, 7]?
The IC50 was 50 µg/mL (≈ 121 µM).

And the MNTC at 48 h (Toxicity to host cells)?
The MNTC at 48 h was over 110 µg/mL.

For `Nc1ccn(COC(COCc2ccccc2)COCc2ccccc2)c(=O)n1` [dibenzyl-C*, 1-[[2-benzyloxy-1-(benzyloxymethyl)]ethoxymethyl]cytosine], which “activity against HSV (in words)” value [2] is on record?
Its value is “exhibited activity against HSV, but to a lesser extent”.
